The nature of series [1]: GMP drug product stability of final formulation (25° C./60% RH and 2-8° C.), degradant CLXXVIII
In kind it is physicochemical. The text has this:
A batch of (XXXVI) formulated for clinical use was placed under formal GMP stability (Tables 20I.1 and […]).

The target of series [2] is T1, BK potassium channel expressed in GH3 cells (Rattus norvegicus, UniProt Q62976).
T1 construct: endogenous in cells; host or cells: GH3 cells
Put plainly: BK potassium channel current in GH3 cells, inside-out patches. In kind it is cell-based. The conditions noted are these: Almirite 1 (mM as printed). Here is the method:
Stock solutions of the test article were prepared in dimethylsulfoxide (DMSO) and stored frozen. Test article concentrations were prepared fresh daily by diluting stock solutions into a physiological saline solution (composition in mM): KCl, 125; CaCl2, 8.5; HEPES, 10; EGTA, 11.25; pH adjusted to 7.2 with KOH (prepared weekly and refrigerated until used). All test solutions contained 0.1% DMSO.
GH3 cells were grown in culture using standard procedures. Ionic currents were measured from inside-out patches of GH3 cells. Channel activity was monitored in symmetrical K^+ conditions with a holding potential of −60 mV. Activities before and in the presence of each concentration of test articles were recorded for ≧3 minutes, respectively.
Data acquisition and analyses were performed using the suite of pCLAMP (Ver. 8.2) programs (MDS-AT, Sunnyvale, Calif. Percent inhibition by test article was calculated using the following equation: 100*(NPocontrol−NPotest)/NPocontrol Results

Series [3] has as its system spontaneously breathing rats. Put plainly: Minute ventilation (MV) and cardiovascular parameters in naive rats. Set-up: unit not given here. In kind it is in vivo, rat. Here is the method: All surgical procedures were performed under anesthesia induced by 2% isoflurane in compressed medical grade air. With rats in supine position, the right femoral vein was catheterized using polyethylene tubing (PE-50). This catheter was used for fluid and drug administration. Simultaneously, the right femoral artery was also catheterized for monitoring blood pressure and heart rate. In order to measure the respiratory parameters in spontaneously breathing rats, trachea was intubated using 13 gauge tracheal tube (2.5 mm ID, Instech Solomon, Pa.).
After establishing a stable base-line at 1.5% isoflurane, compounds (typically at a dose of 1 mpk) were administered IV, and ventilatory parameters were generated from spontaneously breathing rats, along with cardiovascular output (mean arterial pressure (MAP) and heart rate). Maximum peak minute ventilatory (MV) responses (MPR), along with changes in minute ventilation versus baseline (AMV) were obtained as shown in the tables below.

In series [4] the target is T2, rat KCNK3/TASK-1 (Rattus norvegicus, UniProt O54912).
T2 construct: expressed in transfected cells; host or cells: CHO cells (tetracycline-inducible)
T2 sequence (O54912 whole entry): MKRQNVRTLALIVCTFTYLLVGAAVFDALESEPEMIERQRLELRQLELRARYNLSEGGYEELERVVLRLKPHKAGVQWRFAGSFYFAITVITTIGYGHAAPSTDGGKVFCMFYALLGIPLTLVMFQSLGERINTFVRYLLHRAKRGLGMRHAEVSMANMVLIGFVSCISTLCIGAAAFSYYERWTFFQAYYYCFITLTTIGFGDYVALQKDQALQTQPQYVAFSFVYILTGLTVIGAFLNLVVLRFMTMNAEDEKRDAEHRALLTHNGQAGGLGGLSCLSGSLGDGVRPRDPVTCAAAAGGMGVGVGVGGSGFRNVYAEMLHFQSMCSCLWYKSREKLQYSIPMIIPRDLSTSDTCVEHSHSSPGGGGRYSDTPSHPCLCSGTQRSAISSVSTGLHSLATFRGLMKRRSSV
Put plainly: Thallium flux through rat TASK-1 (KCNK3-CHO cells). In kind it is cell-based. The conditions noted are these: Tl+ flux; 3 nM to 30 μM; read-out: rTASK-1 IC50. As to the method: (§1) CHO cells expressing recombinant tetracycline-inducible rat KCNK3/TASK-1 (KCNK3-CHO cells) were plated in poly-D-lysine coated 384-well plates at a density of 6,000 cells/well (50 μl/well of 120,000 cells/mL) and allowed to incubate for 72 hrs in the presence of 5% CO2 and 1 μg/mL tetracycline at 30° C. HEK cells expressing recombinant tetracycline-inducible human KCNK9/TASK-3 (KCNK9-HEK cells) were plated at a density of 15,000 cells per well (50 μl/well, 300,000 cells/mL) and incubated overnight at 37° C. and 5% CO2 in the presence of 1 μg/mL tetracycline.
(§2) Drug plates were generated from 10 mM 100% DMSO mother plates. Compounds were transferred to 384-well drug plates and titrated with sequential 1:3 dilutions in 100% DMSO for a total of 9 dilutions. A dilution plate is made by taking 2.4 μl from the mother plate and adding to […] of assay buffer for a 12% DMSO dilution plate. From this dilution plate, a final daughter plate is generated by taking 1 μA of the dilution plate and adding to 40 μA of assay buffer for a final DMSO concentration of 0.3%. Each compound was evaluated in duplicate and the concentration range evaluated was 3 nM to 30 μM.
(§3) When thallium was added to extracellular solution with a stimulus to open channels, Tl^+ flowed down its concentration gradient into the cells and channel activity was detected with an indicator dye, FluxOR™, that increased in cytosolic fluorescence. The FluxOR™ indicator dye was loaded into cells as a membrane permeable acetoxymethyl ester. On the day of each assay, FluxOR™ assay buffer was made fresh from Hank's Balanced Saline Solution (HBSS) buffered with 20 mM HEPES and pH adjusted to 7.4 with NaOH. Dye loading solution was prepared per manufacturer's instructions, and 25 μl of dye solution applied to each well with a multidropper after plating medium was removed manually from cells. Dye was allowed to load for 90 minutes at room temperature in the dark.
(§4) After the 90 min dye loading incubation and subsequent manual dye removal, 24 μl of the drug daughter plate was transfer to cell plates by a cybi-well system and then incubated at room temperature for 20 minutes to allow for equilibration within wells. Stimulation buffer was prepared from 5× chloride-free buffer, thallium, and potassium sulfate containing 5 times the desired final assay concentration of 10 mM K^+ 2.8 mM Tl^+. Cell plates were then transferred to an FDSS 6000 kinetic imaging plate reader (Hamamatsu). Fluorescence at 525 nm (excitation 488 nm) was measured for 10 seconds at 1 Hz to establish baseline for the entire plate. After baseline was established, 6 μl/well of stimulation buffer was added and fluorescence signal recorded for another 140 seconds.
(§5) From the fluorescence signals in the absence and presence of Galleon compounds, Inhibitory concentration curves were plotted and IC50 values were estimated using a curve fitting algorithm.

In series [5] the target is T3, human KCNK9/TASK-3 (Homo sapiens, UniProt Q9NPC2).
T3 construct: expressed in transfected cells; host or cells: HEK cells (tetracycline-inducible)
T3 sequence (Q9NPC2 whole entry): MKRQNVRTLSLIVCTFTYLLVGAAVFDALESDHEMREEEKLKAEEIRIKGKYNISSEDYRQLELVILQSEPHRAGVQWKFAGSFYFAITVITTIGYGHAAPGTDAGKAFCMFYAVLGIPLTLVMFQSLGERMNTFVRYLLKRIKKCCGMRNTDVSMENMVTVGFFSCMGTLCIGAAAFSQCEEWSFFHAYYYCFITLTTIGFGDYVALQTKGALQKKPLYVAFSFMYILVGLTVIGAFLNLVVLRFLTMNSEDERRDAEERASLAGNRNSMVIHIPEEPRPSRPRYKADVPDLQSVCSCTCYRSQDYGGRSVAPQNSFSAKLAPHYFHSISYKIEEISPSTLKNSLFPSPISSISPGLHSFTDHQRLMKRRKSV
Nature of the series: Thallium flux through human TASK-3 (KCNK9-HEK cells). Format: cell-based. The conditions noted are these: Tl+ flux; 3 nM to 30 μM; read-out: hTASK-3 IC50. Here is the method:
as §1, §2, §3, §4, §5

Series [6] deals with morphine-induced respiratory depression. Put plainly: Opioid-induced respiratory depression in the rat, plethysmography (minute ventilation). Format: in vivo. The conditions noted are these: opioid-treated rat; plethysmography; FIG. 9. Here is the method: Rats with pre-cannulated jugular vein (for administering drugs) were acclimated to plethysmography chambers for a minimum of 60 minutes, or until animals were no longer restless. Each animal was dosed with morphine sulfate (10 mg/kg), dissolved in sterile water at a concentration of 10 mg/mL (supplied by Baxter Healthcare Corporation), via injection into the jugular vein catheter over a period of 5-10 seconds.
Compound (XXXVI) was dissolved in 20% hydroxypropyl β-cyclodextran (20% bcd on graph) at a concentration of 0.45 mg/mL at pH 5. After a period of 5 min, compound (XXXVI), labeled as cmpd (A), was administered via infusion into the jugular vein at a dose of 0.10 mg/kg/min for 20 min and then at a dose of […] for 20 min (e.g., 20 μL/min/0.3 kg rat to yield […]).
After 20 minutes of infusion at this dose, the infusion pumps were turned off, and all animals were given a 20 minute recovery period, followed by a post-study analysis of rat health and behavior. […] Results are illustrated in FIG. 1.

Series [7] has the same test system. Nature of the series: Effects of morphine and compound on arterial blood gases in the rat. The conditions noted are these: opioid-treated rat. Format: in vivo. As to the method: Rats with pre-cannulated jugular vein and femoral arterial catheters (for administering drugs and obtaining blood samples respectively) were obtained from Harlan laboratories and kept at the animal facility at Galleon Pharmaceuticals until the experimental procedures. Each animal was dosed with morphine sulfate (10 mg/kg), dissolved in saline at a concentration of 10 mg/mL, via injection into the jugular vein over a period of 20 seconds with a 20 second flush of 0.9% NaCl saline. Prior to morphine administration, two 250 μL samples of arterial blood were aspirated from the femoral artery into a pre-heparinized syringe. The samples were analyzed on Radiometer's ABL Flex 800, where pO2, pCO2, pH, SaO2 and other parameters were recorded. Aspirated volumes of arterial blood were replaced by room temperature sterile saline (˜300 μL) slowly flushed back into the femoral arterial catheter of the rodent to prevent hypovolemia. Morphine was then administered and 2 minutes later another blood sample was taken.
The infusion started at t=15 minutes and ended at t=35 minutes. Arterial blood gas analysis occurred at time points t=12, 18, 25, 35, 40, 45, and 50 minutes.

Series [8] concerns spontaneously breathing rats. Put plainly: Dose-dependent effect on minute ventilation (MV) in naive rats. The conditions noted are these: 1.5% isoflurane; for minute ventilation, dose dependence: cumulative IV doses. Format: in vivo, rat. As to the method: All surgical procedures were performed under anesthesia induced by 2% isoflurane in compressed medical grade air. With rats in supine position, the right femoral vein was catheterized using polyethylene tubing (PE-50). This catheter was used for fluid and drug administration. Simultaneously, the right femoral artery was also catheterized for monitoring blood pressure. In order to measure the respiratory parameters in spontaneously breathing rats, trachea was intubated using 13 gauge tracheal tube (2.5 mm ID, Instech Solomon, Pa.).
After establishing a stable base-line at 1.5% isoflurane, cumulative dose-dependent (0.01, 0.03, 0.1, 0.3, 1, 3, 10 mg/kg) ventilatory responses to compounds (XXXVI) and (L), labeled as cmpd (A) and cmpd (B) respectively, were generated from spontaneously breathing rats. Maximum peak minute ventilatory (MV) values at each dose of corresponding drug were calculated and used for generating ED50 values.

A short description of series [9]: Solubility in solvents and IV solutions. Format: physicochemical. The conditions noted are these: water, thermodynamic from solid, Solubility. Here is the method:
The solubility of (XXXXVI) and XXXV was evaluated in various solvents and IV solutions. Due to limits on the API supply at the time the study was conducted, most of the solvent systems were evaluated to a level of only 100 mg/mL even if the solution was not saturated at this level. Only in water was an attempt made to reach saturation solubility, regardless of how high that solubility might be. Solubility of the salt/free base in each solvent was evaluated in duplicate.
For solubility in water, drug was added with intermittent shaking to ensure that excess undissolved drug is present indicating saturation […]. The filtrates were diluted appropriately and analyzed for (XXXV) concentration by HPLC.

Where [10] appears, read: Table 8, 1 mpk, 20% HPβCD, pH 4.

Where “and” joins values, the source holds several entries; their conditions need not be identical. Identical values can stand only once. Counter-ions that a name gives are not always drawn.

T1 sequence (Q62976 whole entry): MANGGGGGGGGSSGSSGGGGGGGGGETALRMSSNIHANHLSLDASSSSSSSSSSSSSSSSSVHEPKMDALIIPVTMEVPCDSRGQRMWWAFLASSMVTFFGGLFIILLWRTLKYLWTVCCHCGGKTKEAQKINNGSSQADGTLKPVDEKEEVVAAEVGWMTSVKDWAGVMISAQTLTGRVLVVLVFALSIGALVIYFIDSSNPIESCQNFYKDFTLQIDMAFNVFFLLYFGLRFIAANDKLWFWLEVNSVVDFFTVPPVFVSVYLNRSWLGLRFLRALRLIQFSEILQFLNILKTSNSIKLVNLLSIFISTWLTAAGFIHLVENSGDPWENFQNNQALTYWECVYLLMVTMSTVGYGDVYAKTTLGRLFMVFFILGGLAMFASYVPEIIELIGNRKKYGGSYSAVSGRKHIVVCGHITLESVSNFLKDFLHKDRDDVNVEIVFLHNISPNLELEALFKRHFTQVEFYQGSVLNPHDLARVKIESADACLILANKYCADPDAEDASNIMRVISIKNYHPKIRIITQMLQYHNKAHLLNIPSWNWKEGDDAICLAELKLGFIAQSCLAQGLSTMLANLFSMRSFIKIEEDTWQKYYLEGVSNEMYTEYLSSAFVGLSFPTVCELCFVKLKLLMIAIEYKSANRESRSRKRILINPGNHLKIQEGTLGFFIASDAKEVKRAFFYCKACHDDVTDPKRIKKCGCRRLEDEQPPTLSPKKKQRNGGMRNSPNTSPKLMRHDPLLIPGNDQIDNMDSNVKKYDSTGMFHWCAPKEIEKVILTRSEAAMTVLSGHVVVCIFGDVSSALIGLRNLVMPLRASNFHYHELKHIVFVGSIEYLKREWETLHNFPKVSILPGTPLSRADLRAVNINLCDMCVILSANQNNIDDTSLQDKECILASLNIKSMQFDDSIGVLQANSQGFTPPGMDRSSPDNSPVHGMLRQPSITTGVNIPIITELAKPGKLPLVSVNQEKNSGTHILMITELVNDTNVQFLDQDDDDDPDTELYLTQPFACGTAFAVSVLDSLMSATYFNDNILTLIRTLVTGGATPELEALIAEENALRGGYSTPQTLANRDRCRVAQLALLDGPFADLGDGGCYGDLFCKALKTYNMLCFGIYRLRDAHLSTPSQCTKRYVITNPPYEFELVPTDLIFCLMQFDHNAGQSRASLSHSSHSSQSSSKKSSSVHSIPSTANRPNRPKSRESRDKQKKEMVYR

Consider `CCCNc1nc(O)nc(NCCC)n1` [(CLXXVIII)], for which the “Level of Degradant (CLXXVIII) in GMP lot# 041I0511” value in series [1] (5° C., amb. RH, Inverted, T = 1 month) is 0.03%; in [1] (5° C., amb. RH, Inverted, T = 3 month), 0.06%; in series [1] (5° C., amb. RH, Inverted, T = 6 month) it was 0.08%; in series [1] (5° C., amb. RH, Inverted, T = 9 month), 0.11%; in series [1] (5° C., amb. RH, Upright, T = 6 month), 0.08%; in series [1] (Release Testing, Drug Product Production lot Sample Pull Beg.) it was 0.00%. Besides, the “Level of Degradant (CLXXVIII) in GMP lot# 041I0511” value in series [1] (Release Testing, Drug Product Production lot Sample Pull End) came out at 0.00%; in [1] (Release Testing, Drug Product Production lot Sample Pull Mid.), 0.00%.
With `C=CCNc1nc(NCC=C)nc(N2CCN(C(c3ccc(F)cc3)c3ccc(F)cc3)CC2)n1` [Almirite, almitrine, reference compound], in series [2], the “Inhibition (%), Average” value is reported as 94.7% and the “NPo, Average” value came to 0.0010. Moreover, in series [2] (single patch), the “Inhibition (%)” value is 97.9% and 91.5%; the “NPo (total channel open probability)” value is 0.0009 and 0.0011.
`CCCNc1nc(NN(C)C)c2ccn(C)c2n1` [CLXX, N,N-Dimethyl-N′-(2-n-propylamino-7-methyl-pyrrolo[2,3d]pyrimidin-4-yl)-hydrazine]: the “MV DMV” value in series [3] (Table 8, 1 mpk, 15/65/20, pH 5) amounted to 89; in [3] (setting [10]), 83. The “MV MPR” value in series [3] (Table 8, 1 mpk, 15/65/20, pH 5) worked out at 167; in [3] (setting [10]), 175. For the same compound, the results for the IC50 in series [4] and in series [5] were 160 nM and more than 30000 nM, respectively.
As for `CCCNc1nc(N(C)OC)c2cc[nH]c2n1` [CXLII, N-(2-Propylamino-7H-pyrrolo[2,3d]pyrimidin-4-yl)-N,O-dimethyl-hydroxylamine hydrochloride], in [6], the “minute ventilation (MV), reversal of opioid-induced respiratory depression” value is on record as “reverse opioid-induced respiratory depression”. For the same compound, the “effects of opioid on blood gases and pH (pH, SaO2, pO2, pCO2)” value in [7] was “reverse the effects of opioid on blood gases and pH”.
On to `CCCNc1cc(N(C)OC)nc(NCCC)n1` [CXXI, 2,6-Bis-(N-n-propylamino)-[1,3]pyrimidin-4-yl)-N,O-dimethyl-hydroxylamine hydrogen sulfate], for which the IC50 in series [4] was 220 nM; in series [5], more than 30000 nM. For the same compound, in series [8], the “minute ventilation, dose dependence” value is on record as “increase minute ventilation in a dose-dependent manner”.
For `CCCNc1nc(NCCC)nc(N(C)NC)n1.O=S(=O)(O)O` [L, N-(4,6-Bis-n-propylamino-[1,3,5]triazin-2-yl)-N,N′-dimethyl-hydrazine hydrogen sulfate], the “effects of opioid on blood gases and pH (pH, SaO2, pO2, pCO2)” value in series [7] is “reverse the effects of opioid on blood gases and pH”. In series [8] (Rattus norvegicus, cumulative IV doses 0.01-10 mg/kg, read-out: ED50, maximum peak minute ventilation), the ED50 amounted to 0.13 mg/kg. Further, the “minute ventilation, dose dependence” value in series [8] was “increased minute ventilation in a dose-dependent manner”.
For the compound `CCCNc1nc(NCCC)nc(NN(C)C)n1` [XLVI, N-(4,6-Bis-n-propylamino-[1,3,5]triazin-2-yl)-N′,N′-dimethylhydrazine], the figures for the IC50 in series [4] and in [5] were 600 nM and more than 30000 nM, respectively.
For `CCCNc1nc(NCC2CC2)nc(N(C)OC)n1` [XXV, N-(4-Cyclopropylmethyl)-N-(6-n-propylamino) [1,3,5]triazin-2-yl)-N,O-dimethyl-hydroxylamine hydrochloride], in [3] (1 mpk IV, 20% HPβCD, pH 4-6), the “MV MPR” value is 257 and the “MV ΔMV” value was 126. For the same compound, the solubility in [9] was approximately 210 µg/mL.

The IC50 is the concentration needed to halve the response being measured. Usually ED50 stands for the dose at which the effect has come halfway, by size or by number of responders. As usually defined, the solubility is how much of the substance goes into solution per volume.

The record behind these values is patent US9162992B2, “Compounds and compositions for treatment of breathing control disorders or diseases” (GALLEON PHARMACEUTICALS, INC., priority 2010, dated 2015).
